Entries after “also recorded” stand apart in the source; their conditions may differ.
Tests used:
[1] = biological target: T1, SERCA1a (skeletal SR vesicles) (Oryctolagus cuniculus, UniProt P04191); assay: Oxalate-supported Ca2+-uptake assay, skeletal SR (CRC at pCa 5.4); assay type: biochemical, rabbit; conditions: for Skeletal SR Ca^2+ Uptake Activity Percent Increase: maximal effect of CRC; for Skeletal SR Ca^2+ Uptake Activity Percent Increase / EC50: pCa 5.4, mean ± SD, dash = no observable effect; for EC50: read-out: Skeletal SR Ca^2+ Uptake Activity EC50; for Ca^2+ uptake effect (in words), SR type not given: uncoupling compounds, cluster 5, tissue not stated; for Effect on Ca^2+ uptake activity in skeletal SR (in words): pCa 5.4
T1 construct: rabbit muscles were freshly harvested from the back and hind leg of New Zealand White rabbits and purified using a sucrose gradient; from tissue; host or cells: rabbit (New Zealand White) back and hind leg skeletal muscle, light SR vesicles
Method: (§1) For skeletal SR, rabbit muscles were freshly harvested from the back and hind leg of New Zealand White rabbits and purified using a sucrose gradient. The resulting light skeletal SR contains 80% SERCA, as a proportion of total protein content. Cardiac SR vesicles were isolated from fresh porcine left ventricular tissue.
(§2) To determine compound effect on the Ca^2+-uptake activity of SERCA1a and SERCA2a, we used an oxalate-supported assay. A solution containing 50 mM MOPS (pH 7.0), 100 mM KCl, 30 mg/mL sucrose, 1 mM EGTA, 10 mM potassium oxalate, 2 µM Fluo-4, 30 µg/mL cardiac SR vesicles or 12 μg/mL skeletal SR vesicles, and CaCl2 calculated to reach the desired free [Ca^2+] was dispensed into 384-well black walled, transparent bottomed plates (Greiner Bio-One) containing the tested small molecule and incubated at 21 °C for 20 min while covered and protected from light. To start the reaction, MgATP was added to a final concentration of 5 mM, and the decrease in 485-nm excited fluorescence was monitored at 520 nm for 15 min using a FLIPR Tetra (Molecular Devices, San Jose, CA, USA).
While Ca^2+-dependent ATPase activity is a direct measure of SERCA activity, coupling of ATP hydrolysis to transport of Ca^2+ across the SR membrane is essential for the role of SERCA in cellular physiology. Therefore, we next asked whether our ATPase-based HTS assay could successfully identify compounds that also increase Ca^2+ uptake of SERCA.

[2] = biological target: T2, SERCA1a (rabbit light skeletal SR vesicles) (Oryctolagus cuniculus, UniProt P04191); assay: NADH-coupled Ca-ATPase activity assay, skeletal SR (CRC at pCa 5.4); assay type: biochemical; conditions: n = 3; for Skeletal SR ATPase Activity Percent Increase: maximal effect of CRC 0.05 to 50 µM, pCa 5.4, relative to DMSO, mean ± SD; for EC50: pCa 5.4, mean ± SD
T2 construct: rabbit muscles were freshly harvested from the back and hind leg of New Zealand White rabbits and purified using a sucrose gradient; from tissue; host or cells: rabbit (New Zealand White) back and hind leg skeletal muscle, light SR vesicles
Method: as §1
(§3) Functional assays were performed using rabbit light skeletal sarcoplasmic (SR) vesicles. For high-throughput NADH-coupled screening, assay mix containing a final concentration of 50 mM MOPS (pH 7.0), 100 mM KCl, 1 mM EGTA, 0.2 mM NADH, 1 mM phosphoenol pyruvate, 10 IU/mL of pyruvate kinase, 10 IU/mL of lactate dehydrogenase, 1 µM of the calcium ionophore A23187, 4 µg/mL skeletal SR, and added CaCl2 to obtain pCa 5.4 was dispensed into 384-well DIVERSet assay plates containing 50 nL of compound or DMSO using a FlexDrop Precision liquid dispenser (Perkin Elmer, Waltham, Massachusetts). Plates were sealed, covered from light, and incubated at room temperature for 20 min. The assay was then started by dispensing MgATP (termed “initiation mix”), to a final concentration of 5 mM in each well (80 µL total assay volume) with the FlexDrop liquid dispenser (Perkin Elmer). The time dependence of absorbance was measured at 340 nm in a SpectraMax Plus384 microplate spectrophotometer (Molecular Devices, Sunnyvale, CA). For follow-up concentration response curves of Hit compounds, 400 nL of either compound or DMSO was dispensed into each well using an Echo liquid dispenser (Beckman Coulter). Testing dose-dependent compound effects on rabbit skeletal SR vesicles was done using the same method, as described above in 384-well plates. Determining compound effects on cardiac SR vesicles was done in a similar method as above, with the exception of 10 µg/mL of cardiac SR incubated in assay mix consisting of a final concentration of 50 mM MOPS (pH 7.0), 100 mM KCl, 1 mM EGTA, 1 µM of the calcium ionophore A23187, and added CaCl2 to the desired free calcium values. After a 20 min incubation, the “initiation mix”, containing a final concentration of 0.2 mM NADH, 1 mM phosphoenol pyruvate, 10 IU/mL of pyruvate kinase, 10 IU/mL of lactate dehydrogenase, and 5mM MgATP, was dispensed into each well.
The initial screen assay was performed with compounds at 10 µM. To better study the selected Hit compounds for their activation potential, we performed ATPase analyses (in triplicate) over a range of Hit concentrations (0.05 to 50 µM), generating concentration-response curves (CRCs) to determine maximal effects and EC50 (Figure 2). We used the same Ca^2+ concentration (pCa 5.4) as in the screening assays, thus focusing on the effects on the maximal velocity of SERCA. Two of the selected Hits yielded no response in follow-up assays, probably due to a mismatch in chemical composition between the library compound and the subsequently ordered compound (DS95401435 and DS41547941). This type of discrepancy is a typical hurdle in the screening process. Each of the other 19 compounds produced a substantial increase in ATPase activity, ranging from 30% to 72% (Table 1 and Supporting Information, Figure S1), as expected due to similarity of the CRC assay to the initial screen.

[3] = biological target: T3, SERCA2a (cardiac SR vesicles) (Sus scrofa, UniProt P11607); assay: Oxalate-supported Ca2+-uptake assay, cardiac SR (CRC at pCa 5.4); assay type: biochemical, porcine; conditions: for Cardiac SR Ca^2+ Uptake Activity Percent Increase: maximal effect of CRC; for Cardiac SR Ca^2+ Uptake Activity Percent Increase / EC50: pCa 5.4, mean ± SD, dash = no observable effect; for EC50: read-out: Cardiac SR Ca^2+ Uptake Activity EC50
T3 construct: Cardiac SR vesicles were isolated from fresh porcine left ventricular tissue; from tissue; host or cells: porcine left ventricular tissue, cardiac SR vesicles
Method: as §1, §2
To determine whether the observed increases in SERCA2a ATPase activity translate to Ca^2+ uptake function, we applied our Ca^2+ transport assay to test our selected Hit compounds in cardiac SR (Table 1). Indeed, 16 of the 19 compounds yielded a clear increase in Ca^2+ uptake activity. In fact, eight compounds generated an increase at least 50% greater in cardiac SR than in skeletal SR. Three compounds had either an inhibitory or no effect on Ca^2+ transport, and two of these were also non-activating compounds in skeletal SR.

[4] = biological target: T3, SERCA2a (cardiac SR vesicles); assay: NADH-coupled Ca-ATPase activity assay, cardiac SR (CRC at pCa 5.4); assay type: biochemical, porcine; conditions: pCa 5.4, mean ± SD, n = 3; for Cardiac SR ATPase Activity Percent Increase: maximal effect of CRC
Method: as §1, §3
While initial screening was performed in skeletal SR enriched with the SERCA1a isoform, high sequence and structural homology with the cardiac SERCA2a isoform predicts a potential for cross reactivity of the Hit compounds. To test this hypothesis, we performed ATPase analyses with cardiac SR microsomes, which are enriched for SERCA2a.

T3 sequence (P11607 1-997 isoform P11607-2): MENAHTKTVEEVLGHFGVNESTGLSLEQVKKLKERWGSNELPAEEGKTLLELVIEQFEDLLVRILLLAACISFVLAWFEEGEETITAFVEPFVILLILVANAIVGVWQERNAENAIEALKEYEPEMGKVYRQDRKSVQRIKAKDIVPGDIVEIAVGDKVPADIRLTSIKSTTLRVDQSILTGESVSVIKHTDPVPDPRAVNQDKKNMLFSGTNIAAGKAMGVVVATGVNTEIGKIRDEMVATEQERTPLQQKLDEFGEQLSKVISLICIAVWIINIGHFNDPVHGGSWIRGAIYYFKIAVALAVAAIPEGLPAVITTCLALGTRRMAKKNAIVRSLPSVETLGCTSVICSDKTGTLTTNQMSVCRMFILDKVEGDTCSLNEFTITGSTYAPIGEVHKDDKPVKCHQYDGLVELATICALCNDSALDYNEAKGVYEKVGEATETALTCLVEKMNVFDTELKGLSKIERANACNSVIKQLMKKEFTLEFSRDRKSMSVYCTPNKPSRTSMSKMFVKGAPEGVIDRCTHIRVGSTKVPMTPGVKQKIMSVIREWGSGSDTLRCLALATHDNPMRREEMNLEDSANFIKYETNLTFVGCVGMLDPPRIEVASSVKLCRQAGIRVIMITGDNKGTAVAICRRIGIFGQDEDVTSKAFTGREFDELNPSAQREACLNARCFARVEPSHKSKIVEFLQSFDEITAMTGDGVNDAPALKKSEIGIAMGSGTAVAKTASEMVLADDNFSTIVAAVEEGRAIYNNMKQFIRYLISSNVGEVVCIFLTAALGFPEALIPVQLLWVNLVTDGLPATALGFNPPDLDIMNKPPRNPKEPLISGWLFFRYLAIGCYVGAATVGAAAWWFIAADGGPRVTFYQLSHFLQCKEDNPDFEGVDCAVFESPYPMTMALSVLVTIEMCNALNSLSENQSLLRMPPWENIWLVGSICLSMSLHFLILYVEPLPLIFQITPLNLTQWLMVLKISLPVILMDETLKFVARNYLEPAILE
T1 sequence (P04191 1-994 isoform P04191-2): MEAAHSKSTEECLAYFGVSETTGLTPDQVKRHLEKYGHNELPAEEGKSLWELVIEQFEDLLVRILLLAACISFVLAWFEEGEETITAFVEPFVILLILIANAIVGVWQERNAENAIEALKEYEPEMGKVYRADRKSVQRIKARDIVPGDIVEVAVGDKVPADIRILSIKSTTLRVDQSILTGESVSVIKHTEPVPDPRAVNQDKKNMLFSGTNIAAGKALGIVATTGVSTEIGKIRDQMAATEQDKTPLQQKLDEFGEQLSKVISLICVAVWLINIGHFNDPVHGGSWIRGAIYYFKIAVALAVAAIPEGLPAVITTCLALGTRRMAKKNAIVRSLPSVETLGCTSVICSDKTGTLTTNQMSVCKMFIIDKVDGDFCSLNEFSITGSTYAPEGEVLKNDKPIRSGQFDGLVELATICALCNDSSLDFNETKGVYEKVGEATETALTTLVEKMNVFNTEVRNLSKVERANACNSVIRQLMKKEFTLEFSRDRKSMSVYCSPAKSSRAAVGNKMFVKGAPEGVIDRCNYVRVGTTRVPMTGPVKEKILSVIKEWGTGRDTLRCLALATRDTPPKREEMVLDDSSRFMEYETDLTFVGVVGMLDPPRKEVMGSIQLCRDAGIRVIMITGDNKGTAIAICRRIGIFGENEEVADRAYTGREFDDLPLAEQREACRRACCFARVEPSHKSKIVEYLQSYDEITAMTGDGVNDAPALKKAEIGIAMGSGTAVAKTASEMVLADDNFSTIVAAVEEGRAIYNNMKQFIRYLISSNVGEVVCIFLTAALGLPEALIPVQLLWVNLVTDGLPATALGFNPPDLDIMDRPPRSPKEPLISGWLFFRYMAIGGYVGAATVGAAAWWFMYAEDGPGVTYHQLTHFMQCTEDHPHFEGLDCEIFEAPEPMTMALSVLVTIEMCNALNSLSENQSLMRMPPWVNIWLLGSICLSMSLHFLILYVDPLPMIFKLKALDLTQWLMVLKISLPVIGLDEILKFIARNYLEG
T2 sequence (P04191 1-994 isoform P04191-2): as above

Skeletal SR Ca^2+ Uptake Activity Percent Increase ([1]; n = 3) [%] | EC50 ([1]; n = 3) [µM] | Skeletal SR ATPase Activity Percent Increase [2] [%] | EC50 [2] [µM] | Increase in Ca^2+ uptake in cardiac SR vs. skeletal [3] | Cardiac SR Ca^2+ Uptake Activity Percent Increase ([3]; n = 3) [%] | EC50 ([3]; n = 3) [µM] | Cardiac SR ATPase Activity Percent Increase [4] [%] | EC50 [4] [µM] | Ca^2+ uptake effect (in words), SR type not given [1] | Compound classification from ATPase vs. Ca^2+ uptake CRCs, skeletal SR ([1]; skeletal SR, n = 3) | Effect on Ca^2+ uptake activity in skeletal SR (in words) ([1]; skeletal SR, listed as DS33804556) | Compound classification from ATPase vs. Ca^2+ uptake CRCs, cardiac SR ([3]; cardiac SR, n = 3) | Compound | Effect on Ca^2+ uptake activity in skeletal SR (in words) ([1]; skeletal SR) | Effect on Ca^2+ uptake activity in cardiac SR (in words) ([3]; cardiac SR, pCa 5.4)
8 ± 2 | 1.1 ± 0.6 | 36 ± 4 | 3.2 ± 0.6 | greater than 2 fold | 21 ± 10 | 1.8 ± 2 | 36 ± 4 | 2.9 ± 0.6 |  |  |  |  | CN(Cc1ccccc1)c1ncccc1CNc1ncccc1Cl [Compound 13] |  | 
8 ± 2 |  | 25 ± 3 | 3.3 ± 0.6 | greater than 2 fold | 28 ± 5 | 2.5 ± 0.9 | 56 ± 3 | 5.2 ± 0.5 |  |  |  |  | COc1ccccc1CNc1nc(C(C)(C)C)nc2c1cnn2C [Compound 14] |  | 
 |  | 30 ± 1 | 30 ± 12 |  | 6 ± 5 | 5 ± 11 | 46 ± 6 | 16 ± 3 | little to no Ca^2+ uptake effect |  |  |  | C=C(C)COc1cccc(C(=O)NCCn2cccn2)c1 [Compound 15] |  | 
−10 ± 2 | 7 ± 13 | 25 ± 1 | 3 ± 0.3 |  | −27 ± 3 | 8.9 ± 2 | 26 ± 2 | 2.2 ± 0.4 | sizeable inhibitor effect | Uncoupling Compounds | inhibitory | Uncoupling Compounds | COc1ccc(CCNC(=O)c2oc3c(Cl)cc(C)cc3c2C)cc1 [Compound 16] | inhibition of Ca^2+ uptake activity; also recorded: inhibitor of Ca^2+ uptake | inhibition of Ca^2+ uptake activity; also recorded: inhibitor of Ca^2+ uptake
8.9 ± 0.1 | 1.1 ± 0.3 | 39 ± 1 | 5.2 ± 0.3 |  | 12 ± 1 | 0.9 ± 0.2 | 37 ± 1 | 4.3 ± 0.3 |  |  |  |  | COc1cccc(-c2nn(-c3ccccc3)cc2CN(Cc2c(C)nn(C)c2C)C2CC2)c1 [Compound 18] |  | 
7.2 ± 0.1 | 1.8 ± 0.7 | 42 ± 2 | 7.3 ± 0.8 |  | 8 ± 1 | 2.4 ± 0.6 | 22 ± 2 | 6.3 ± 0.4 |  |  |  |  | OCc1ccccc1-c1ccc(-c2nc(CCc3ccccc3)no2)cn1 [Compound 19] |  | 

Source: article PMC9776381, “A Large-Scale High-Throughput Screen for Modulators of SERCA Activity” (Biomolecules, 2022)
